Test results from patent publication US12049450B2, “Pyridyloxy-carboxylate derivative and preparation method therefor, herbicidal composition, and use” (Qingdao Kingagroot Chemical Compound Co., Ltd., priority 2018, dated 2024).

Assays:
Format in all cases: in vivo
Monochoria vaginalis [1] = experiment: Weed control effect evaluation in rice field soil pot; conditions: paddy pot, 1000 g/ha, 14 days after treatment; resistant to pyrazosulfuron-ethyl and penoxsulam
Excerpt: (§1) The activity level standard of harmful plants destruction (i. e. growth inhibition rate) is as follows: • Level 5: the growth inhibition rate is greater than 85%; • Level 4: the growth inhibition rate is equal to or greater than 60% and less than 85%; • Level 3: the growth inhibition rate is equal to or greater than 40% and less than 60%; • Level 2: the growth inhibition rate is equal to or greater than 20% and less than 40%; • Level 1: the growth inhibition rate is equal to or greater than 5% and less than 20%; • Level 0: the growth inhibition rate is less than 5%;
(§2) Transplanted rice safety evaluation and weed control effect evaluation in rice field:
Rice field soil was loaded into a 1/1,000,000 ha pot. The seeds of Monochoria vaginalis were sowed and gently covered with soil, then left to stand still in greenhouse in the state of 0.5-1 cm of water storage. It was kept at 3-4 cm of water storage thereafter. The weeds were treated by dripping the WP or SC water diluents prepared according to the common preparation method of the compounds of the present invention with pipette homogeneously to achieve specified effective amount when Monochoria vaginalis reached 0.5 leaf stage.
(§3) The fertility condition of Monochoria vaginalis 14 days and rice 21 days after the treatment of the compound of the invention with the naked eye.

rice (japonica rice) = experiment: Transplanted rice safety evaluation in rice field soil pot; conditions: 1000 g/ha, 21 days after treatment
Excerpt: as §1, §2
In addition, the rice field soil that loaded into the 1/1,000,000 ha pot was leveled to keep water storage at 3-4 cm depth. The 3-leaf stage rice (japonica rice) was transplanted at 3 cm of transplanting depth the next day. The compound of the present invention was treated by the same way after 5 days of transplantation.
as §3

Soybean = experiment: Spray drift test, application by unmanned gyroplane, soybean field at 10 meters; conditions: 600 g/ha, gyroplane at 1 m, gentle breeze
Experimental: Broadleaf crops are very sensitive to hormonal herbicides, therefore crop injuries are more likely to occur in case of spray drifting. Tests were conducted in gentle breeze for the compounds of the present invention. The formulation of the compounds of the present invention was applied by DJI unmanned gyroplane with application height of 1 m and water volume of 20 kg/ha. The use rate was 600 g/ha. The active ingredient was dissolved by acetone and diluted to aqueous solution of Tween 80. There's a soybean field at 10 meters from the application area and the height of soybean plants were about 15 cm at the application time.

Indica rice = experiment: Post-emergence test experiment (greenhouse pot, spray at 2-3 leaf stage); conditions: 600 g/ha; for Indica rice, activity level (growth inhibition rate): post-emergence, after 3 weeks
How it was run: (§4)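 Activity graded levels 0-5 by fresh-weight inhibition (level 5 above 85%, level 0 below 5%), assessed 3 weeks after treatment. Plants grown in greenhouse pots were sprayed post-emergence at 2-3 leaves using acetone/tween-80 solutions with methyl oleate synergist (1.5 L/ha).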

Japonica rice = experiment: as above; conditions: 600 g/ha; for Japonica rice, activity level (growth inhibition rate): post-emergence, after 3 weeks
How it was run: as §4

Cyperus iria = experiment: as above; conditions: 600 g/ha; for Cyperus iria, activity level (growth inhibition rate): post-emergence, after 3 weeks, from Hunan, resistant to ALS inhibitor herbicides
How it was run: (§5)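 Weed seeds sown in soil-filled pots in greenhouse, sprayed at 2-3 leaf stage (2 weeks after sowing) with compound in acetone/tween-80 plus methyl oleate emulsible concentrate (1.5 L/ha) diluted in water. Fresh-weight growth inhibition scored after 3 weeks on 0-5 scale (5: >85%, 0: <5%).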

Monochoria vaginalis [2] = experiment: as above; conditions: 1000 g/ha; post-emergence spray at 2-3 leaf stage; assessed after 3 weeks; fresh weight inhibition rate
How it was run: as §5

Galium spurium = experiment: as above; conditions: 1000 g/ha; post-emergence spray at 2-3 leaf stage; assessed after 3 weeks; fresh weight inhibition rate
How it was run: as §5

Abutilon theophrasti = experiment: as above; conditions: 1000 g/ha; post-emergence spray at 2-3 leaf stage; assessed after 3 weeks; fresh weight inhibition rate
How it was run: as §5

Echinochloa crusgalli = experiment: as above; conditions: for Activity level (growth inhibition rate) Echinochloa crusgalli: 1000 g/ha, post-emergence spray at 2-3 leaf stage, assessed after 3 weeks, fresh weight inhibition rate; for Echinochloa crusgalli, activity level (growth inhibition rate): post-emergence, after 3 weeks, from Hunan, resistant to ALS inhibitor herbicides
How it was run: as §5

Digitaria sanguinalis = experiment: as above; conditions: for Activity level (growth inhibition rate) Digitaria sanguinalis: 1000 g/ha, post-emergence spray at 2-3 leaf stage, assessed after 3 weeks, fresh weight inhibition rate
How it was run: as §5

Setaria viridis = experiment: as above; conditions: 600 g/ha
How it was run: as §5

Echinochloa phyllopogon = experiment: as above; conditions: 600 g/ha
How it was run: as §5

Leptochloa chinensis = experiment: as above; conditions: 600 g/ha
How it was run: as §5

[3] = post-emergence comparison, 600 g/ha

| SMILES | Monochoria Vaginalis, activity level (Monochoria vaginalis [1]) | Rice, safety level (rice (japonica rice)) | Soybean, injury level by spray drift (Soybean) | Indica rice, activity level (growth inhibition rate) (Indica rice) | Japonica rice, activity level (growth inhibition rate) (Japonica rice) | Cyperus iria, activity level (growth inhibition rate) (Cyperus iria) | Activity level (growth inhibition rate) Monochoria Vaginalis (Monochoria vaginalis [2]) | Activity level (growth inhibition rate) Galium spurium (Galium spurium) | Activity level (growth inhibition rate) Abutilon theophrasti (Abutilon theophrasti) | Activity level (growth inhibition rate) Echinochloa crusgalli (Echinochloa crusgalli) | Echinochloa crusgalli, activity level (growth inhibition rate) (Echinochloa crusgalli; 600 g/ha) | Activity level (growth inhibition rate) Digitaria sanguinalis (Digitaria sanguinalis) | Indica rice, activity level (comparison test) (Indica rice; post-emergence comparison) | Japonica rice, activity level (comparison test) (Japonica rice; post-emergence comparison) | Cyperus iria, activity level (comparison test) (Cyperus iria; post-emergence comparison) | Setaria viridis, activity level (comparison test) (Setaria viridis) | Echinochloa crusgalli, activity level (comparison test) (Echinochloa crusgalli; [3]) | Digitaria sanguinalis, activity level (comparison test) (Digitaria sanguinalis; [3]) | Echinochloa phyllopogon, activity level (comparison test) (Echinochloa phyllopogon) | Leptochloa chinensis, activity level (comparison test) (Leptochloa chinensis) |
| --- | --- | --- | --- | --- | --- | --- | --- | --- | --- | --- | --- | --- | --- | --- | --- | --- | --- | --- | --- | --- |
| CC(Oc1nc(F)c(Cl)c(N)c1Cl)C(=O)OCc1ccccc1 (stereo not drawn) [Compound 4] | 5 (Level 5: the growth inhibition rate is greater than 85%) | 0 (Level 0: the growth inhibition rate is less than 5%) | 0 (Level 0: the growth inhibition rate is less than 5%) | 0 (Level 0: the growth inhibition rate is less than 5%) | 0 (Level 0: the growth inhibition rate is less than 5%) | 5 (Level 5: the growth inhibition rate is greater than 85%) | 5 (Level 5: the growth inhibition rate is greater than 85%) | 5 (Level 5: the growth inhibition rate is greater than 85%) | 5 (Level 5: the growth inhibition rate is greater than 85%) | 5 (Level 5: the growth inhibition rate is greater than 85%) | 5 (Level 5: the growth inhibition rate is greater than 85%) | 5 (Level 5: the growth inhibition rate is greater than 85%) | – | – | – | – | – | – | – | – |
| CC(Oc1nc(F)c(Cl)c(N)c1Cl)C(=O)OCc1ccccn1 (stereo not drawn) [Compound 120] | 5 (Level 5: the growth inhibition rate is greater than 85%) | 0 (Level 0: the growth inhibition rate is less than 5%) | – | 0 (Level 0: the growth inhibition rate is less than 5%) | 0 (Level 0: the growth inhibition rate is less than 5%) | 5 (Level 5: the growth inhibition rate is greater than 85%) | 5 (Level 5: the growth inhibition rate is greater than 85%) | 5 (Level 5: the growth inhibition rate is greater than 85%) | 5 (Level 5: the growth inhibition rate is greater than 85%) | 5 (Level 5: the growth inhibition rate is greater than 85%) | 5 (Level 5: the growth inhibition rate is greater than 85%) | 5 (Level 5: the growth inhibition rate is greater than 85%) | – | – | – | – | – | – | – | – |
| CC(Oc1nc(F)c(Cl)c(N)c1Cl)C(=O)SCc1cc(C2CC2)nn1C (stereo not drawn) [Compound 128] | 5 (Level 5: the growth inhibition rate is greater than 85%) | 0 (Level 0: the growth inhibition rate is less than 5%) | – | 0 (Level 0: the growth inhibition rate is less than 5%) | 0 (Level 0: the growth inhibition rate is less than 5%) | 5 (Level 5: the growth inhibition rate is greater than 85%) | 5 (Level 5: the growth inhibition rate is greater than 85%) | 5 (Level 5: the growth inhibition rate is greater than 85%) | 5 (Level 5: the growth inhibition rate is greater than 85%) | 5 (Level 5: the growth inhibition rate is greater than 85%) | 5 (Level 5: the growth inhibition rate is greater than 85%) | 5 (Level 5: the growth inhibition rate is greater than 85%) | – | – | – | – | – | – | – | – |
| CC(Oc1nc(F)c(Cl)c(N)c1Cl)C(=O)OCCc1ccoc1 (stereo not drawn) [Compound 140] | 5 (Level 5: the growth inhibition rate is greater than 85%) | 0 (Level 0: the growth inhibition rate is less than 5%) | – | 0 (Level 0: the growth inhibition rate is less than 5%) | 0 (Level 0: the growth inhibition rate is less than 5%) | 5 (Level 5: the growth inhibition rate is greater than 85%) | 5 (Level 5: the growth inhibition rate is greater than 85%) | 5 (Level 5: the growth inhibition rate is greater than 85%) | 5 (Level 5: the growth inhibition rate is greater than 85%) | 5 (Level 5: the growth inhibition rate is greater than 85%) | 5 (Level 5: the growth inhibition rate is greater than 85%) | 5 (Level 5: the growth inhibition rate is greater than 85%) | – | – | – | – | – | – | – | – |
| CC(Oc1nc(F)c(Cl)c(N)c1Cl)C(=O)SCc1ccc2ncccc2c1 (stereo not drawn) [Compound 185] | 5 (Level 5: the growth inhibition rate is greater than 85%) | 0 (Level 0: the growth inhibition rate is less than 5%) | – | 0 (Level 0: the growth inhibition rate is less than 5%) | 0 (Level 0: the growth inhibition rate is less than 5%) | 5 (Level 5: the growth inhibition rate is greater than 85%) | 5 (Level 5: the growth inhibition rate is greater than 85%) | 5 (Level 5: the growth inhibition rate is greater than 85%) | 5 (Level 5: the growth inhibition rate is greater than 85%) | 5 (Level 5: the growth inhibition rate is greater than 85%) | 5 (Level 5: the growth inhibition rate is greater than 85%) | 5 (Level 5: the growth inhibition rate is greater than 85%) | – | – | – | – | – | – | – | – |
| CC(Oc1nc(F)c(Cl)c(N)c1Cl)C(=O)OCc1c(F)c(F)c(F)c(F)c1F (stereo not drawn) [Compound 238] | – | – | – | – | – | – | 5 (Level 5: the growth inhibition rate is greater than 85%) | 5 (Level 5: the growth inhibition rate is greater than 85%) | 5 (Level 5: the growth inhibition rate is greater than 85%) | 5 (Level 5: the growth inhibition rate is greater than 85%) | – | 5 (Level 5: the growth inhibition rate is greater than 85%) | 0 (Level 0: the growth inhibition rate is less than 5%) | 0 (Level 0: the growth inhibition rate is less than 5%) | 5 (Level 5: the growth inhibition rate is greater than 85%) | 5 (Level 5: the growth inhibition rate is greater than 85%) | 5 (Level 5: the growth inhibition rate is greater than 85%) | 5 (Level 5: the growth inhibition rate is greater than 85%) | 4 (Level 4: the growth inhibition rate is equal to or greater than 60% and less than 85%) | 5 (Level 5: the growth inhibition rate is greater than 85%) |
